Assay results published in patent US9486471B2, “Combination therapy for the treatment of cancer” (McMaster University, priority 2012, dated 2016).

Assays:
Format in all cases: cell-based, human
[1] = tested on: differentiation-associated genes in neoplastic hPSCs; assay: TaqMan Low-Density Array-qPCR of differentiation genes; settings: treated neoplastic hPSCs; >2 fold increase
Description: Gene Expression Analysis. Cells in specific conditions were collected and RNA was extracted by using RNeasy kit (Qiagen), complementary DNA (cDNA) generation by using SuperScript III® cDNA synthesis kit (Invitrogen), pre-amplification and TaqMan® array reaction (Applied Biosystems) were performed according to manufacturer's instructions. The gene expression profile for each treated cell population was analyzed using TaqMan® Stem Cell Pluripotency Array Card on ViiA 7 Real-Time PCR System (Applied Biosystems). Each reaction sample was dispensed into loading wells on the array card and centrifuged twice at 336×g for 1 min each time, sealed, and placed in the thermal cycler. The following cycling conditions were used for all array card applications: 45° C. for 10 min, 94° C. for 10 min, and 40 cycles of 94° C. for 30 s followed by 60° C. for 1 min. Array data were normalized to 18S RNA and GAPDH and comparisons were performed using data analysis 2.0 software (Applied Biosystems).

[2] = tested on: v1H9-Oct4-GFP neoplastic hPSC; assay: Chemical screening of neoplastic hPSC reporter line (GFP / Hoechst, loss of pluripotency)
Description: In Vitro Culture Platform for Normal and Neoplastic hPSCs. Chemical screens involved v1H9-Oct4-GFP cells seeded at 5,000 cells per well in mouse embryonic fibroblast conditioned media (MEFCM) supplemented with 8 ng/ml bFGF. 24 hours later the media was exchanged for MEFCM with compounds at 10 μM and 0.1% DMSO, 0.1% DMSO (−BMP4) or 100 ng/ml of BMP4 and 0.1% DMSO (+BMP4) for 48 hours before being exchanged with fresh media with compound for a further 24 h (total compound treatment time 72 h) prior to being fixed and prepared for automated imaging and plate reader analysis. Confluent H9 & fibroblast-derived iPSC were seeded at 10,000 cells per well in MEFCM supplemented with 8 ng/ml bFGF. 24 hours later the cells were treated with compounds at 10 μM and 0.1% DMSO, 0.1% DMSO (−BMP4) or 100 ng/ml of BMP4 and 0.1% DMSO (+BMP4). Fresh MEFCM supplemented with compounds was exchanged daily for 5 days. On day 5, hPSC's were fixed and prepared for automated imaging and plate reader analysis. See supplementary experimental procedures for further details.
Imaging Neoplastic hPSC. Cells were fixed in 2% paraformaldehyde and stained with 10 μg/mL Hoechst 33342 (Invitrogen) with a Combi Multidrop Dispenser (Thermo). For experiments that involved Oct4 immunocytochemistry, a monoclonal antibody for Oct4 (BD) was used along with an Alexa-Fluor-647 secondary (Invitrogen). Immunocytochemical staining was performed by a Janus automated liquid handler (Perkin Elmer). Images were acquired at 10× N.A with an Arrayscan HCS VTI Reader (Cellomics) by means of epi-fluorescence illumination and standard filter sets.
Image Analysis. Image analysis was performed using custom scripts in Acapella software (Perkin Elmer). Nuclear objects were segmented from the Hoechst signal. For neoplastic cell lines, object intensity analysis was performed on GFP positive cells only. For normal cell lines, the fraction of Alexa-Fluor-647-positive cells was quantified. Images and well-level data were stored and analysed in a Columbus Database (Perkin Elmer) and further data analysis, compounds registration and hit identification in ActivityBase (IDBS).
These Collections have been previously scrutinized in numerous other mammalian cell lines (Diallo et al., 2010; Shoemaker, 2006).

[3] = tested on: HL-60, MV4-11 and OCI-AML3 leukemic cell lines; assay: Normalized cell number of leukemic cell lines after 72 h incubation (Examples 1, 3)
Description: All three lines are leukemic cell lines. […] Each condition had three replicates.
The dopamine receptor antagonist and phenothiazine-related compound chlorpromazine was also investigated for effects on the AML cell lines HL-60, MV4-11 and OCI-AML3. Testing was performed as set out in Example 1.

AML patient blast cells = assay: Methylcellulose colony-forming assay, AML patient blast-CFU
Description: AML/HPSC Cell Culture. AML cell lines, namely, OCI-AML2 (M4), OCI-AML3 (M4), HL-60 (M2) and MV-4-11(M5) were cultured in RPMI (Gibco) supplemented with 5% heated-inactivated FBS (HyClone). For DR agonist studies with R(+)-7-Hydroxy-DPAT hydrobromide (Sigma), serum-free conditions were employed instead due to the prevalence of dopamine in FBS (Little et al., 2002). AML patient blasts were cultured in IMDM supplemented with 5% heated inactivated FBS (HyClone), 5 ng/mL IL3 (R&D systems), 5×10^−5 M β-mercaptoethanol (Sigma) and BIT (StemCell Technologies). HSC media contained IMDM supplemented with 1% BSA (Sigma), 100 ng/mL SCF (R&D systems), 100 ng/mL Flt-3L (R&D systems) and 20 ng/mL TPO (R&D systems). Patient HSPC and AML samples were treated with compound or DMSO-vehicle (0.1%) for 24 h prior to CFU plating or xenotransplantation studies.
Methylcellulose Colony-Forming Assay. AML patient or CB lin− cells were cultured 24 hours in the presence of compound or DMSO-vehicle (0.1%) control. AML cells were plated at 50 000 cells/mL in Methocult GF H4434 (Stem Cell Technologies). CB lin− cells were plated at 1000 cells/mL in Methocult GF H4434 (Stem Cell Technologies). Colonies were scored after 14 days of culture using standard morphological criteria.

**Q.** With `CSc1ccc2c(c1)N(CCC1CCCCN1C)c1ccccc1S2` (racemic) [thioridazine, 10-{2-[(RS)-1-Methylpiperidin-2-yl]ethyl}-2-methylsulfanylphenothiazine] as the compound, how does the upregulated differentiation-associated genes [1] read?
**A.** 21 of 50

**Q.** What about the “hit in extended screen (loss of pluripotency)” value ([2]; 2446 compound screen, reduced mean GFP intensity and cell count) of the same compound?
**A.** hits

**Q.** What about the activity at 10 µM ([2]; Homo sapiens, 10 μM, 590 compound screen, read-out: Hoechst % residual activity (% RA)) of the same compound?
**A.** > 30%

**Q.** What about the normalized cell number ([3]; 0.1 μM) of the same compound?
**A.** little effect

**Q.** And the normalized cell number ([3]; 1 μM)?
**A.** little effect

**Q.** And the “normalized cell number / toxicity” value ([3]; 10 μM)?
**A.** reduced to almost zero

**Q.** And the “blast-CFU generation, DR+ subfraction of patient AML” value (AML patient blast cells; 10 μM, 24 h)?
**A.** reduction

**Q.** And the “blast-CFU generation, DR- subfraction of patient AML” value (AML patient blast cells; 10 μM, 24 h)?
**A.** no reduction

**Q.** What about the AML proliferation/clonogenic capacity (AML patient blast cells; 24 h treatment, colonies scored after 14 days) of the same compound?
**A.** reduction

**Q.** What about the “AML-blast CFU formation” value (AML patient blast cells; dose not stated in the sentence (0.1, 1, 10 μM tested)) of the same compound?
**A.** reduced
